ChEMBL document CHEMBL1201862, “PubChem BioAssay data set” (2004)
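Exposure lasted 48 hours, with cells grown in 96-well plates and compounds tested at five concentrations. The concentration for 50% growth inhibition is given as GI50.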 The source made the active and inactive calls. No stated cut-off is given here; in the data, active = GI50 up to about 1.1 µM and inactive = higher.

Assays:
Test in all cases: NCI anticancer screen, dose series, 48 h
OVCAR-8 = system: OVCAR-8
HT-29 = system: HT-29
SK-MEL-2 = system: SK-MEL-2
DMS-273 = system: DMS-273
SF-295 = system: SF-295
OVCAR-3 = system: OVCAR-3
HOP-18 = system: HOP-18
NCI-H226 = system: NCI-H226
NCI-H522 = system: NCI-H522
RPMI-8226 = system: RPMI-8226
RXF 631 = system: RXF 631
KM12 = system: KM12
CCRF-CEM = system: CCRF-CEM
HL-60 = system: HL-60
A549 = system: A549
SNB-78 = system: SNB-78
ACHN = system: ACHN
COLO 205 = system: COLO 205
UO-31 = system: UO-31
786-0 = system: 786-0
RXF 393 = system: RXF 393
SF-539 = system: SF-539
M19-MEL = system: M19-MEL
CAKI-1 = system: CAKI-1
SF-268 = system: SF-268
SK-MEL-28 = system: SK-MEL-28
HOP-92 = system: HOP-92
K562 = system: K562
OVCAR-4 = system: OVCAR-4
SN12C = system: SN12C
KM-20L2 = system: KM-20L2
NCI-H460 = system: NCI-H460
HCT-15 = system: HCT-15
SR = system: SR
HCT-116 = system: HCT-116
UACC-62 = system: UACC-62
UACC-257 = system: UACC-257
M14 = system: M14
Malme-3M = system: Malme-3M
SK-OV-3 = system: SK-OV-3
LOX IMVI = system: LOX IMVI
OVCAR-5 = system: OVCAR-5
DMS-114 = system: DMS-114
TK-10 = system: TK-10
SW-620 = system: SW-620
EKVX = system: EKVX
HOP-62 = system: HOP-62
SK-MEL-5 = system: SK-MEL-5
IGROV-1 = system: IGROV-1
SNB-75 = system: SNB-75
U-251 = system: U-251
DLD-1 = system: DLD-1
LXFL 529 = system: LXFL 529
A498 = system: A498
NCI-H23 = system: NCI-H23
SNB-19 = system: SNB-19
MOLT-4 = system: MOLT-4
HCC 2998 = system: HCC 2998

## O=C(Nc1ccn(CCO)c(=O)n1)c1ccccc1
OVCAR-8
  GI50: > 100 µM (inactive)
HT-29
  GI50: > 100 µM (inactive)
SK-MEL-2
  GI50: > 100 µM (inactive)
DMS-273
  GI50: > 100 µM (inactive)
SF-295
  GI50: > 100 µM (inactive)
OVCAR-3
  GI50: > 100 µM (inactive)
HOP-18
  GI50: > 100 µM (inactive)
NCI-H226
  GI50: > 100 µM (inactive)
NCI-H522
  GI50: > 100 µM (inactive)
RPMI-8226
  GI50: > 100 µM (inactive)
RXF 631
  GI50: > 100 µM (inactive)
KM12
  GI50: > 100 µM (inactive)
CCRF-CEM
  GI50: > 100 µM (inactive)
HL-60
  GI50: > 100 µM (inactive)
A549
  GI50: > 100 µM (inactive)
SNB-78
  GI50: > 100 µM (inactive)
ACHN
  GI50: > 100 µM (inactive)
COLO 205
  GI50: > 100 µM (inactive)
UO-31
  GI50: > 100 µM (inactive)
786-0
  GI50: > 100 µM (inactive)
RXF 393
  GI50: > 100 µM (inactive)
SF-539
  GI50: > 100 µM (inactive)
M19-MEL
  GI50: > 100 µM (inactive)
CAKI-1
  GI50: > 100 µM (inactive)
SF-268
  GI50: > 100 µM (inactive)
SK-MEL-28
  GI50: > 100 µM (inactive)
HOP-92
  GI50: > 100 µM (inactive)
K562
  GI50: > 100 µM (inactive)
OVCAR-4
  GI50: > 100 µM (inactive)
SN12C
  GI50: > 100 µM (inactive)
KM-20L2
  GI50: > 100 µM (inactive)
NCI-H460
  GI50: > 100 µM (inactive)
HCT-15
  GI50: > 100 µM
SR
  GI50: > 100 µM (inactive)
HCT-116
  GI50: > 100 µM (inactive)
UACC-62
  GI50: > 100 µM (inactive)
UACC-257
  GI50: > 100 µM (inactive)
M14
  GI50: > 100 µM (inactive)
Malme-3M
  GI50: > 100 µM (inactive)
SK-OV-3
  GI50: > 100 µM (inactive)
LOX IMVI
  GI50: > 100 µM (inactive)
OVCAR-5
  GI50: > 100 µM (inactive)
DMS-114
  GI50: > 100 µM (inactive)
TK-10
  GI50: > 100 µM (inactive)
SW-620
  GI50: > 100 µM (inactive)
EKVX
  GI50: > 100 µM (inactive)
HOP-62
  GI50: > 100 µM (inactive)
SK-MEL-5
  GI50: > 100 µM (inactive)
IGROV-1
  GI50: > 100 µM (inactive)
SNB-75
  GI50: > 100 µM (inactive)
U-251
  GI50: > 100 µM (inactive)
DLD-1
  GI50: > 100 µM (inactive)
LXFL 529
  GI50: > 100 µM (inactive)
A498
  GI50: > 100 µM (inactive)

## CC1CC[C@]2(C(=O)O)CCC3(COC(=O)/C=C\c4ccc(O)cc4)C(=CCC4[C@@]5(C)CC[C@H](O)C(C)(C)C5CC[C@]43C)[C@@H]2[C@H]1C (stereo not given in full)
OVCAR-8
  GI50: 20.1 µM (inactive)
NCI-H23
  GI50: 13.9 µM (inactive)
HT-29
  GI50: 19.7 µM (inactive)
SK-MEL-2
  GI50: 20.8 µM (inactive)
DMS-273
  GI50: 20.3 µM (inactive)
SF-295
  GI50: 17.1 µM (inactive)
OVCAR-3
  GI50: 18.2 µM (inactive)
HOP-18
  GI50: 27.5 µM (inactive)
NCI-H226
  GI50: 18.5 µM (inactive)
NCI-H522
  GI50: 17.5 µM (inactive)
RPMI-8226
  GI50: 22.3 µM (inactive)
RXF 631
  GI50: 24.4 µM (inactive)
KM12
  GI50: 7.21 µM (inactive)
CCRF-CEM
  GI50: 20.4 µM (inactive)
HL-60
  GI50: 26.2 µM (inactive)
A549
  GI50: 11.3 µM (inactive)
SNB-78
  GI50: > 100 µM (inactive)
ACHN
  GI50: 10.4 µM (inactive)
COLO 205
  GI50: 23.3 µM (inactive)
UO-31
  GI50: 17.7 µM (inactive)
SNB-19
  GI50: 12.3 µM (inactive)
786-0
  GI50: 21.3 µM (inactive)
RXF 393
  GI50: 17.5 µM (inactive)
SF-539
  GI50: 15.8 µM (inactive)
M19-MEL
  GI50: 21.7 µM (inactive)
CAKI-1
  GI50: 11.4 µM (inactive)
MOLT-4
  GI50: 26.6 µM (inactive)
SF-268
  GI50: 14.7 µM (inactive)
SK-MEL-28
  GI50: 20 µM (inactive)
K562
  GI50: 13 µM (inactive)
OVCAR-4
  GI50: 39.3 µM (inactive)
SN12C
  GI50: 20.8 µM (inactive)
KM-20L2
  GI50: 18.4 µM (inactive)
NCI-H460
  GI50: 15.7 µM (inactive)
HCT-15
  GI50: 21 µM
SR
  GI50: 20.6 µM (inactive)
HCT-116
  GI50: 17.5 µM (inactive)
UACC-62
  GI50: 17.2 µM (inactive)
UACC-257
  GI50: 31 µM (inactive)
M14
  GI50: 17.6 µM (inactive)
Malme-3M
  GI50: 34.8 µM (inactive)
SK-OV-3
  GI50: 3.5 µM (inactive)
LOX IMVI
  GI50: 14.1 µM (inactive)
OVCAR-5
  GI50: 19.5 µM (inactive)
DMS-114
  GI50: 25.7 µM (inactive)
TK-10
  GI50: 21.7 µM (inactive)
HCC 2998
  GI50: 17.2 µM (inactive)
SW-620
  GI50: 27.9 µM (inactive)
EKVX
  GI50: 16.7 µM (inactive)
SK-MEL-5
  GI50: 18.2 µM (inactive)
IGROV-1
  GI50: 11.5 µM (inactive)
SNB-75
  GI50: 27.7 µM (inactive)
U-251
  GI50: 9.79 µM (inactive)
DLD-1
  GI50: 10.8 µM (inactive)
LXFL 529
  GI50: 22.7 µM (inactive)
A498
  GI50: 27 µM (inactive)
